Results as given in ChEMBL document CHEMBL1201862, “PubChem BioAssay data set” (2004).
Calls of active or inactive are those of the source.

Assays:
[1] = target: Cytochrome P450 2C19 (Homo sapiens, UniProt P33261); test: Cytochrome panel assay with activity outcomes. Panel member name: p450-cyp2c19 Compounds with AC50 equal or less than 10 uM are considered active; type: functional
[2] = Trypanosoma cruzi growth suppression in host cells – NIH3T3 host cells, beta-gal luminescence, confirmation (AID 2044); type: functional, cell-based;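 further: intracellular parasites grown in NIH/3T3 mouse fibroblasts as host cells; luminescent beta-galactosidase reporter signal from transgenic T. cruzi replicating inside host cells; inhibitors lower the luminescence signal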
[3] = NIH3T3 cell viability loss – ATP luminescence, mouse fibroblasts, counter-screen, dose response (AID 2010); type: functional, cell-based;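 further: cells exposed to compound for about 90 hours before reading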
[4] = viability of uninfected HEp-2 cells – cell-based, HTS, cytotoxicity control for RSV inhibitor project, dose response (AID 2410); type: functional; conditions: human respiratory syncytial virus
[5] = Luminescence Cell-Based Dose Retest to Confirm Inhibitors of Cancer Stem Cells. [Related pubchem assays (depositor defined):AID2717, AID2721]; type: functional; conditions: Homo sapiens
[6] = target: Cytochrome P450 3A4 (Homo sapiens, UniProt P08684);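 further: CYP3A4 tested as one member of a cytochrome P450 panel screen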
Chain of Cytochrome P450 3A4 (P08684 whole entry): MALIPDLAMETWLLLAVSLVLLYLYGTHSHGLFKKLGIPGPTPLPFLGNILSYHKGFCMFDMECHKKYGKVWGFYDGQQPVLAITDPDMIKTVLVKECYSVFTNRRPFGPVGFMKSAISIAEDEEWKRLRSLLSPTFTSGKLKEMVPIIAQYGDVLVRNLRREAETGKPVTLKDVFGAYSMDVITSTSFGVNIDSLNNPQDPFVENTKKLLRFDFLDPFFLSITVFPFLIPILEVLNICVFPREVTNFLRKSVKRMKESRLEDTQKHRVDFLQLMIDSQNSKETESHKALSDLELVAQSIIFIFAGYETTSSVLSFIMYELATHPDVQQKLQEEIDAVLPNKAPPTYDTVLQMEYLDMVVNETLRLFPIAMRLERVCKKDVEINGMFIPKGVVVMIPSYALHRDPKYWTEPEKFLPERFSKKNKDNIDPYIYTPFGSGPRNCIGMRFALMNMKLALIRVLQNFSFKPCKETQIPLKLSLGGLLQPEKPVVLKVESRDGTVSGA

[7] = target: Cytochrome P450 2C9 (Homo sapiens, UniProt P11712)
Chain of Cytochrome P450 2C9 (P11712 whole entry): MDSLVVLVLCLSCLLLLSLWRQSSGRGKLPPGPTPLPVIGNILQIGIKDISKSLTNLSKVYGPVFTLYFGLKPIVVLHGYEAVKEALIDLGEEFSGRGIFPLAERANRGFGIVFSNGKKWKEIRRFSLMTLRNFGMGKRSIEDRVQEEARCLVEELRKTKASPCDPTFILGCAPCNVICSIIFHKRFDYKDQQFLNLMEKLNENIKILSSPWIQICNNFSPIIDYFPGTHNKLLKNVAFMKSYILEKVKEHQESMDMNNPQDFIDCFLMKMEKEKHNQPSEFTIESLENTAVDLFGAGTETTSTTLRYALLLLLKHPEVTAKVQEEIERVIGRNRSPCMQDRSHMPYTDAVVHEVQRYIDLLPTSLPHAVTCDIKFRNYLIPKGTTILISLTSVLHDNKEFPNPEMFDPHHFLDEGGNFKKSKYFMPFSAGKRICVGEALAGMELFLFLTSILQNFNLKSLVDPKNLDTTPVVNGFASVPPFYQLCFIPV

[8] = target: Cytochrome P450 2D6 (Homo sapiens, UniProt P10635);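 further: CYP2D6 member of a cytochrome P450 panel assay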
Chain of Cytochrome P450 2D6 (P10635 whole entry): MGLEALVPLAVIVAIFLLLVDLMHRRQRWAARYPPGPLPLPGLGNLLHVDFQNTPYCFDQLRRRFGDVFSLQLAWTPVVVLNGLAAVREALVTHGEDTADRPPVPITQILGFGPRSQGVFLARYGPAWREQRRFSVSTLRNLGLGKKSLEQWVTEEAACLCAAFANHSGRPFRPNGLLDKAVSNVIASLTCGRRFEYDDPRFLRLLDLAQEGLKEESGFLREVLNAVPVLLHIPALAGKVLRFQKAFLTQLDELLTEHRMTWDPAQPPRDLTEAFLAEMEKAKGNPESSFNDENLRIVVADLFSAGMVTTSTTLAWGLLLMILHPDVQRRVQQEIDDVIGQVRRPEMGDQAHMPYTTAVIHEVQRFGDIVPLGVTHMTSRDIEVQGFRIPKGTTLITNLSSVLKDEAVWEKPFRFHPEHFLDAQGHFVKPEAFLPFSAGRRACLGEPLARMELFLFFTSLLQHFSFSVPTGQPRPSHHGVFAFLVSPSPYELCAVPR

[9] = tested on: Streptococcus; test: GAS UMAA2166 growth inhibition – luminescence, BacTiterGlo, counter-screen for streptokinase expression inhibitor project, dose response (AID 1915); type: functional, organism-based;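 further: potency for reduction of bacterial viability or growth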
[10] = tested on: Streptococcus sp. 'group A'; test: Streptococcus pyogenes SK(-)GAS viability under kanamycin – luminescence, BacTiterGlo, confirmation, counter-screen for streptokinase expression inhibitor project, dose response (AID 1900); type: functional, organism-based
[11] = reduction of Shn3 3'UTR-driven luciferase in osteoblasts – cell-based, Clone20 osteoblasts, firefly luciferase, cherry-picked, dose response (AID 624132); type: functional;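 further: firefly luciferase luminescence from reporter carrying the Shn3 3'UTR in osteoblasts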

Chain of Cytochrome P450 2C19 (P33261 whole entry): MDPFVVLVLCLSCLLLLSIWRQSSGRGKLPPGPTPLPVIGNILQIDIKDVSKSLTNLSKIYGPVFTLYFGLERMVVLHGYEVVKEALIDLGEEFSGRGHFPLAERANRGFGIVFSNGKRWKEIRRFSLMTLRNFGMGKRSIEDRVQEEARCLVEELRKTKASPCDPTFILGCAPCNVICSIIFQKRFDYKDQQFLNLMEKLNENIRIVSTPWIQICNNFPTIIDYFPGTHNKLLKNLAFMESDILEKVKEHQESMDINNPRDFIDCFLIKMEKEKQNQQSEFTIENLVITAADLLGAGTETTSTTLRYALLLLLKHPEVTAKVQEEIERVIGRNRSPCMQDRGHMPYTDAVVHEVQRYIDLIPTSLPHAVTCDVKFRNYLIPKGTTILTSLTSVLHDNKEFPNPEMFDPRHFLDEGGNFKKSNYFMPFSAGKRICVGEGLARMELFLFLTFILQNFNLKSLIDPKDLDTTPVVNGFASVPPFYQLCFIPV

N#Cc1ccc(C(c2ccc(C#N)cc2)n2cncn2)cc1 [LETROZOLE]
AC50 ([1]; read-out: AC50): 7.94 µM (inconclusive)

O=C(Cn1ccnc1)c1ccc(Cl)cc1
EC50 [2]: > 30 µM (not active) | EC50 [3]: > 30 µM (not active)

COc1ccc(-c2nc(-c3cc([N+](=O)[O-])ccc3C)c(-c3ccccc3)[nH]2)cc1OC
CC50 [4]: 21.4 µM (active)

c1ccc(Nc2nc(-c3ccncc3)cs2)nc1
EC50 [2]: 0.526 µM (active) | EC50 [3]: > 60 µM (not active)

O=C(NCc1ccc(Cl)cc1)c1cccc(NC(=O)c2ccccc2)c1
AC50 [5]: 5.29 µM (active)

CCN1CCN(c2ccc(S(=O)(=O)N3CCOCC3)cc2NC(=O)CCC(C)C)CC1
EC50 [2]: 1.34 µM (active) | EC50 [3]: > 60 µM (not active)

COc1ccc2c(=O)cc(-c3ccncc3)oc2c1OC
AC50 [6]: 3.98 µM (inconclusive)

CCOC(=O)c1nnn(-c2nonc2N)c1-c1ccccc1
AC50 [7]: 10 µM (inconclusive)

Clc1ccc(OCCOCCN2CCCCC2)c(Br)c1
EC50 [2]: 0.166 µM (active) | EC50 [3]: 13.2 µM (active)

CCNC(=Nc1ccc(Cl)cc1)c1cccnc1
AC50 ([1]; read-out: AC50): 1.78 µM (inconclusive) | AC50 [6]: 22.4 µM (inconclusive)

CCCn1cnc2c(SCC(=O)O)nc(N)nc21
AC50 [1]: inconclusive

Cc1cccc(-c2nc(Nc3cccc(O)c3)c3ccccc3n2)c1
AC50 [5]: 3.88 µM (active)

CN(CCc1ccccn1)Cc1ccc(Cl)cc1Cl
AC50 [7]: 6.31 µM (inconclusive)

COCC(C)NCc1cccc(C)c1 (configuration not stated)
AC50 [8]: 14.1 µM (inconclusive)

COCCn1c(=O)c(CCc2ccccc2)nc2cnc(OC)nc21
AC50 [7]: 20 µM (inconclusive)

Cc1nc(N2CCC(C)CC2)c2c(C)c(C(=O)Nc3ccc(C(F)(F)F)cc3)sc2n1
EC50 [2]: 1.41 µM (active) | EC50 [3]: > 60 µM (inconclusive)

COc1c(N2CCN(C(S)=Nc3ccc(F)cc3)C(C)C2)c(F)cc2c(=O)c(C(=O)O)cn(C3CC3)c12 (configuration not stated)
EC50 [9]: 5.79 µM (active) | EC50 [10]: 4.5 µM (active)

Cc1ccc(C2CC(c3cccs3)=NN2C(=O)CSc2nc3ccccc3o2)cc1 (configuration not stated)
CC50 [4]: 30.2 µM (active)

Cc1ccc(N(C(C)C(=O)Nc2cc(Cl)ccc2Oc2ccccc2)S(C)(=O)=O)cc1 (configuration not stated)
AC50 [8]: 15.8 µM (inconclusive)

CCOc1ccccc1NC(=O)Nc1ccc(CC#N)cc1
CC50 [4]: 28 µM (active)

CC(C)COP(=O)(c1ccc(N(C)C)cc1)C(O)c1ccccc1F (configuration not stated)
AC50 [6]: 3.98 µM (inconclusive) | AC50 [7]: 12.6 µM (inconclusive)

Cc1ccc(S(=O)(=O)NCC(=O)N(CC(=O)NCc2ccco2)Cc2cccs2)cc1
AC50 [7]: 15.8 µM (inconclusive)

C=CCOc1cccc(CNn2cnnc2S)c1
AC50 [6]: 28.2 µM (inconclusive) | AC50 [7]: 6.31 µM (inconclusive)

COC(=O)c1cc(NC(=O)c2cc(-c3ccc(Cl)cc3)oc2C(F)(F)F)ccc1N1CCOCC1
EC50 [2]: 3.3 µM (active) | EC50 [3]: > 60 µM (not active)

CCOc1ccccc1NC(=O)CSc1nc2c(c(=O)n1C)SC(C)C2 (configuration not stated)
CC50 [4]: 35.2 µM (active)

CCCCCOc1ccc(C(=O)NCC2(c3ccccc3)CCOCC2)cc1
AC50 [6]: 31.6 µM (inconclusive)

CC(C)=CCc1c(O)c(CC=C(C)C)c2occ(-c3ccc(O)cc3)c(=O)c2c1O
EC50 [9]: 3.28 µM (active) | EC50 [10]: 2.66 µM (active) | AC50 [5]: 2.62 µM (active)

ON(CCc1ccccn1)Cc1ccccc1
AC50 [6]: 3.98 µM (inconclusive)

Cc1cccc2cc(CN(Cc3nnnn3Cc3ccco3)C3CCCC3)c3nnnn3c12
CC50 [4]: > 50 µM (active)

N#C/C(=C\c1ccc(Oc2ccc(C(F)(F)F)cc2[N+](=O)[O-])cc1)c1nc2ccccc2[nH]1
AC50 [6]: 11.2 µM (inconclusive)

COc1ccc(C)cc1Nc1n[n+](-c2ccccc2)c(-c2cccc(Cl)c2Cl)s1
EC50 [2]: 3 µM (active) | EC50 [3]: 15.4 µM (active)

COc1cccc(-c2nc(CS(=O)(=O)CC(=O)NCCCOC(C)C)c(C)o2)c1
AC50 ([1]; read-out: AC50): 17.8 µM (inconclusive) | AC50 [7]: 11.2 µM (inconclusive)

O/N=C/c1cc(Cl)ccc1OCc1ccccc1Cl
AC50 [5]: 4.45 µM (active)

CCCCNc1c(-c2ccc(SC(C)CC)cc2)nc2ccccn12 (configuration not stated)
AC50 [5]: 4.29 µM (active)

Cc1sc2nc(SCC(=O)C(C)(C)C)n(Cc3ccco3)c(=O)c2c1C
AC50 ([1]; read-out: AC50): 5.01 µM (inconclusive)

CCOC(=O)CSc1cc(C(F)(F)F)nc(-c2ccccn2)n1
AC50 ([1]; read-out: AC50): 17.8 µM (inconclusive) | AC50 [7]: 39.8 µM (inconclusive)

CCOC(=O)c1c(NC(=O)c2nn(CC)cc2Br)sc(C)c1C
AC50 [11]: 11 µM (active)

CCCCCCCCCCCCCC(=O)O[C@H]1[C@@H](C)[C@@]2(O)[C@@H](C=C(CO)C[C@]3(O)C(=O)C(C)=C[C@@H]23)C2C(C)(C)[C@]21OC(C)=O (some centres not stated)
AC50 [7]: 10 µM (inconclusive)

O=S(=O)(c1ccc(Cl)cc1)N1CCN(C2CCN(Cc3ccccc3)CC2)CC1
EC50 [2]: 1.07 µM (active) | EC50 [3]: > 60 µM (not active)

CC(C)=CCC/C(C)=C/CO/N=C1/[C@H]2O[C@@H]2[C@@H](O)[C@H]2[C@H]1CCn1c(=O)n(Cc3cc4c(cc3Cl)OCO4)c(=O)n12
AC50 [6]: 3.98 µM (inconclusive)

O=C(O)C(Cc1cccs1)C(=O)O
AC50 [1]: inconclusive

CCN1CCN(CC(=O)Nc2ccc(S(=O)(=O)N3C(C)CCCC3C)cc2)CC1 (configuration not stated)
EC50 [2]: 1.07 µM (active) | EC50 [3]: > 60 µM (not active)

Oc1ccc2c3c1O[C@H]1c4oc5ccccc5c4C[C@]4(O)[C@H](C2)N(CC2CC2)CC[C@@]314
AC50 [6]: 20 µM (inconclusive)

Cc1cc(C(=O)N2CCc3c([nH]c4ccccc34)C2c2cccc(Cl)c2)nn1C (configuration not stated)
EC50 [2]: 2.17 µM (active) | EC50 [3]: > 60 µM (not active)

CC(=O)N1CCC2(CC1)CN(c1ccccc1)C2
AC50 [1]: inconclusive

O=C(Nc1ccccc1N1CCOCC1)c1cc2c(s1)CCCCC2
CC50 [4]: > 50 µM (active)

O=C(O)c1cc2c(ccc3ccccc32)[nH]1
CC50 [4]: 30.9 µM (active)

Cc1c(C2(O)CCCCC2)[nH]c2cc(C(F)(F)F)ccc12
AC50 [5]: 7.81 µM (active)

COc1c(N2CCN(C(=S)Nc3ccc(F)cc3)C(C)C2)c(F)cc2c(=O)c(C(=O)O)cn(C3CC3)c12 (configuration not stated)
AC50 ([1]; read-out: AC50): 39.8 µM (inconclusive)

CCOc1ccc(N/C(C)=C/C(=O)c2ccc(C)o2)cc1
EC50 [2]: 2.98 µM (active) | EC50 [3]: > 60 µM (not active)

CC1CC(C)CN(C(=O)c2cc3cc(Br)cc(Br)c3o2)C1 (configuration not stated)
CC50 [4]: 18.9 µM (active)

C/C(=N\c1ccccc1C)C1=C(O)SCC1=O
CC50 [4]: 32.3 µM (active)

CC(C)=CCc1c(O)ccc(C(=O)Cc2ccccc2)c1O
AC50 [5]: 3.82 µM (active)

C[C@@H]1O[C@H](O[C@@H]2CC[C@@]3(C=O)[C@H]4CC[C@@]5(C)[C@@H](C6=CC(=O)OC6)CC[C@@]5(O)[C@@H]4CC[C@]3(O)C2)C[C@H](O)[C@@H]1O
AC50 [6]: 15.8 µM (inconclusive)

Oc1ccccc1/N=C/c1c[nH]nc1O
AC50 [1]: inconclusive | AC50 [7]: 8.91 µM (inconclusive)

COc1cccc(/N=C/c2c[nH]nc2O)c1
AC50 ([1]; read-out: AC50): 35.5 µM (inconclusive) | AC50 [7]: 20 µM (inconclusive)

FC(F)(F)c1cnc(N2CCC(=NOCc3ccc(Cl)cc3)CC2)c(Cl)c1
AC50 ([1]; read-out: AC50): 20 µM (inconclusive)

COc1ccc2cc(S(=O)(=O)n3cnc(C)c3)ccc2c1
CC50 [4]: > 50 µM (active)

CCOc1cc(NC(=O)c2cccc(C)c2)c(OCC)cc1N=C(S)NCC1CCCO1 (configuration not stated)
AC50 [7]: 7.94 µM (inconclusive)

CCOC(=O)c1sc(NC(=O)Nc2ccccc2Cl)cc1C
EC50 [2]: 2.26 µM (active) | EC50 [3]: > 30 µM (not active) | AC50 [5]: 5.37 µM (active)

COc1ccc(N2CCN(C(=O)CSc3nnc4c(C)cc5cc(C)ccc5n34)CC2)cc1
CC50 [4]: > 50 µM (active)

N=C(N)N/N=C/c1ccc(Cl)c([N+](=O)[O-])c1
EC50 [2]: 0.108 µM (active) | EC50 [3]: > 60 µM (not active)

Oc1nc2ccc(Br)cc2c(-c2ccccc2)c1CN1CCOCC1
CC50 [4]: 48.4 µM (active)

C[C@]12CCC3C(CC[C@H]4CC(O)CC[C@]34C)C1CC/C2=N/O (some centres not stated)
CC50 [4]: > 50 µM (active)

CCOC(=O)[C@@H](O)Cc1cnc2ccccc2n1
AC50 [7]: 3.98 µM (inconclusive)

CC1CCCC(NC(=O)C2CCCN2S(=O)(=O)c2cccc3nsnc23)C1C (configuration not stated)
CC50 [4]: 23.6 µM (active)

Cc1ccc(C(=O)N2C3C=CC(C3)C2(C(F)(F)F)C(F)(F)F)cc1 (configuration not stated)
AC50 [7]: 39.8 µM (inconclusive)

C=CCn1c(SCC(=O)NC2CCCCC2)nnc1C1CCCCC1
AC50 [1]: inconclusive | AC50 [7]: 28.2 µM (inconclusive)

COC(=O)[C@@]1(Cc2ccc(OC)cc2)[C@H]2c3cc(C(=O)N4CCCC4)n(Cc4ccc(OC(F)(F)F)cc4)c3C[C@H]2CN1C(=O)c1ccccc1
AC50 ([1]; read-out: AC50): 7.94 µM (inconclusive)

OCCC1CN(Cc2cccc(C(F)(F)F)c2)CCN1Cc1ccccc1 (configuration not stated)
EC50 [2]: 1.33 µM (active) | EC50 [3]: > 60 µM (inconclusive)

Cc1nn2c(COc3ccc(NC(=O)c4ccccc4)cc3)nnc2c2ccccc12
EC50 [9]: 0.859 µM (active) | EC50 [10]: 0.854 µM (active)

Cc1cc(C(=O)COc2ccc(Cl)cc2Br)c(C)n1C
CC50 [4]: > 50 µM (active)

Cc1ccc(-n2nc3c(N4CCC(C(=O)NCc5cccc(F)c5)CC4)nnc(C)c3c2C)cc1
CC50 [4]: 32.7 µM (active)

CC(Oc1ccc(-c2ccccc2)c(F)c1)c1ccn(S(=O)(=O)c2ccc(Cl)cc2)n1 (configuration not stated)
AC50 [6]: 15.8 µM (inconclusive)

C=C(Br)CN(C)CC(=C)Br
AC50 [1]: inconclusive
